The subject of data set [1] is MDA-MB-231 cells. The data set can be described thus: 3D spheroid live/dead viability assay. It counts as cell-based, human. The conditions noted are these: MDA-MB-231 spheroids, 100 μM, 48 h. As to the method: 3D cell cultures of cancer are good models for preclinical cancer research, as they are more representative of tumor microenvironments. MDA-MB-231 cells were maintained using the standard cell culture methods before seeding into round-bottom ultralow-attachment plates for 3D culture. Once the cells were seeded, the plate was centrifuged to assist with cell clumping at the bottom of the well and facilitate uniform spheroid formation. After 24 h, medium containing collagen I was added, and the cells were allowed to aggregate further. After sufficient growth of the spheroids (Day 4 – Figure ), the cells were treated with 100 μM of 1 for 48 h. The higher concentration was chosen, as it has been reported that spheroids require higher drug doses than two-dimensional (2D) experiments.
Live and dead cells were then visualized using the LIVE/DEAD Viability/Cytotoxicity Kit by Invitrogen. […]
An equal volume of Annexin V and 7-AAD solution was added to 100 μL of the cell suspension, followed by a 20 min incubation at room temperature. The cells were then analyzed using the Muse Cell Analyzer (Merck Millipore). […]
A mixture of 50 μL of cell suspension and 5 μL of Caspase 3/7 antibody (diluted 1:8 in PBS) was prepared and incubated at room temperature for 30 minutes. […] Apoptotic cells were analyzed using the Muse Cell Analyzer. […]

The subject of data set [2] is MDA-MB-231 cells. The data set can be described thus: Chemosensitivity (MTT cell viability) assay, MDA-MB-231. It counts as cell-based, human. The conditions noted are these: for IC50: n = 9. As for the experimental part: All cytotoxicity assays were conducted using human cell lines: breast adenocarcinomas (MDA-MB-231 and MCF-7), pancreatic carcinoma (MIA PaCa-2) and non-cancerous epithelial retinal (ARPE-19) cell lines. All cell lines were routinely maintained as monolayer cultures in appropriate complete media:
MCF-7, MIA PaCa-2 and ARPE-19 in high glucose DMEM and MDA-MB-231 in RPMI-1640, and both media were supplemented with 10% FBS, 1 mM sodium pyruvate, 2 mM L-glutamine, and 1% pen-strep. All cells were initially grown in T-25 or T-75 flasks at 37 °C and 5% CO2. Before chemosensitivity studies, cell monolayers were passaged using trypsin-EDTA (0.05%) and diluted to a concentration of 1 x 10^4 cells/mL (or 4 x 10^4 cells mL for 24 h assays). All assays were conducted in 96-well plates, in which 100 µL of the cell suspension was added for 24 h at 37 °C and 5% CO2, and then 100 µL of compound/medium dilutions for a further 96 h (or 24 h). All compound stocks were made using sterile DMSO at 100 mM before dilution, and a maximum of 0.1% DMSO was used in each assay. After incubation, 3-(4,5-dimethylthiazol-2-yl)-2,5-diphenyltetrazolium bromide (20 µL, 5 mg/mL in PBS) was added to each well and incubated for 3 h at 37°C and 5% CO2. All solutions were then aspirated, DMSO (150 µL) added to each well, gently mixed, and the absorbance was measured at 540 nm using a ClarioStar spectrophotometer microplate reader. Results were plotted on a logarithmic scale, and the half maximal inhibitory concentration (IC50) was determined from a triplicate of triplicate repeats (n = 9) and reported as an IC 50 ± Standard Deviation (SD).

For the substance “[Cp*Ir(C16H14NO)(PTA)](PF6) [Compound 1]”, the “Cytotoxicity in 3D spheroids (live/dead staining)” value in the data set on MDA-MB-231 cells [1] is reported as “significant cytotoxicity”. Further, the IC50 (in general, the concentration at which inhibition is half-maximal) came to 18 ± 1 µM with MDA-MB-231 cells [2] (MDA-MB-231, 24 h) and 6.3 ± 0.7 µM in the data set on MDA-MB-231 cells [2] (MDA-MB-231, 96 h). The “Selectivity index (SI)” value in the data set on MDA-MB-231 cells [2] (MDA-MB-231 compared to ARPE-19, 96 h) is reported as 1.7.

The record behind these values is paper PMC12406195, “Understanding the Modes of Action of β‑Ketoiminato Iridium(III) Complexes in Cancer Cells” (Inorganic Chemistry, 2025).
